Assay results reported in PubChem BioAssay AID1963983 (Molecular Pharmacology Branch, DTP, NCI, 2024).
“And” between values parts separate entries of the source, which are not always exact repeats. Equal entries are not always repeated.

Tested on: 186277-243-T-J2-PDC multi-cell spheroid viability
Assay: Anticancer human tumor 186277-243-T-J2-PDC patient-derived colon adenocarcinoma cell line growth inhibition [PI3K]
Settings: for viability, T/C: stronger effect = lower value
Outline: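 Targeted small molecules plus PI3K inhibitors, half-log dose series from Cmax (default top 10 microM), were applied to heterotypic spheroids of cancer cells with HUVEC and MSCs. Viability indicated growth inhibition.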

[1] = curve of first compound, second compound 0.0316 µM
[2] = curve of first compound, second compound 0.1 µM
[3] = curve of first compound, second compound 0.316 µM
[4] = curve of first compound, second compound 1 µM
[5] = curve of first compound, second compound 0.00316 µM
[6] = curve of first compound, second compound 0.01 µM
[7] = second compound 0.00316 µM, first compound 0.0316 µM
[8] = second compound 0.00316 µM, first compound 0.1 µM
[9] = second compound 0.00316 µM, first compound 0.316 µM
[10] = second compound 0.00316 µM, first compound 1 µM
[11] = second compound 0.00316 µM, first compound 3.16 µM
[12] = second compound 0.00316 µM, first compound 10 µM
[13] = second compound 0.01 µM, first compound 0.0316 µM
[14] = second compound 0.01 µM, first compound 0.1 µM
[15] = second compound 0.01 µM, first compound 0.316 µM
[16] = second compound 0.01 µM, first compound 1 µM
[17] = second compound 0.01 µM, first compound 3.16 µM
[18] = second compound 0.01 µM, first compound 10 µM
[19] = second compound 0.0316 µM, first compound 0.0316 µM
[20] = second compound 0.0316 µM, first compound 0.1 µM
[21] = second compound 0.0316 µM, first compound 0.316 µM
[22] = second compound 0.0316 µM, first compound 1 µM
[23] = second compound 0.0316 µM, first compound 3.16 µM
[24] = second compound 0.0316 µM, first compound 10 µM
[25] = second compound 0.1 µM, first compound 0.0316 µM
[26] = second compound 0.1 µM, first compound 0.1 µM
[27] = second compound 0.1 µM, first compound 0.316 µM
[28] = second compound 0.1 µM, first compound 1 µM
[29] = second compound 0.1 µM, first compound 3.16 µM
[30] = second compound 0.1 µM, first compound 10 µM
[31] = second compound 0.316 µM, first compound 0.0316 µM
[32] = second compound 0.316 µM, first compound 0.1 µM
[33] = second compound 0.316 µM, first compound 0.316 µM
[34] = second compound 0.316 µM, first compound 1 µM
[35] = second compound 0.316 µM, first compound 3.16 µM
[36] = second compound 0.316 µM, first compound 10 µM
[37] = second compound 1 µM, first compound 0.0316 µM
[38] = second compound 1 µM, first compound 0.1 µM
[39] = second compound 1 µM, first compound 0.316 µM
[40] = second compound 1 µM, first compound 1 µM
[41] = second compound 1 µM, first compound 3.16 µM
[42] = second compound 1 µM, first compound 10 µM
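Note: spheroids exposed to compounds for seven days before viability reading.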
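Throughout, for viability, T/C: 100% = DMSO vehicle control viability.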

With `Cn1nccc1Nc1nccc(-c2ccn(C(CO)c3ccc(Cl)c(F)c3)c(=O)c2)n1` (stereo unspecified) the viability, T/C (compound 0.0316 µM) was 96.2% [middle of 4 runs], the viability, T/C (compound 0.1 µM) was 102% and 103% (2×) and 105% and the viability, T/C (compound 0.316 µM) was 99.2% [middle of 4 runs]. The viability, T/C (compound 1 µM) was 81% [middle of 4 runs], the viability, T/C (compound 3.16 µM) was 37.2% [middle of 4 runs] and the viability, T/C (compound 10 µM) was 26.7% [middle of 4 runs]. The IC50 (curve of compound) was 2.35 µM [middle of 4 runs].
`CC(Nc1ccc2c(c1)OCCn1cc(N3C(=O)OCC3C(F)F)nc1-2)C(N)=O` (stereo unspecified) was tested, and the viability, T/C (compound 0.00316 µM) was 99.1% [middle of 8 runs], the viability, T/C (compound 0.01 µM) was 100% [middle of 8 runs] and the viability, T/C (compound 0.1 µM) was 98% [middle of 8 runs]. The viability, T/C (compound 0.316 µM) was 73.4% [middle of 8 runs] and the viability, T/C (compound 1 µM) was 50.1% [middle of 8 runs].
With `Cn1cnc2c(F)c(Nc3ccc(Br)cc3Cl)c(C(=O)NOCCO)cc21` + Cc1nc(NC(=O)N2CCCC2C(N)=O)sc1-c1ccnc(C(C)(C)C(F)(F)F)c1 the IC50 [1] was 0.117 µM, the IC50 [2] was 0.0667 µM and the IC50 [3] was 0.0341 µM. For the same compound, the IC50 [4] was less than 0.00949 µM, the IC50 (curve of first compound, second compound 3.16 µM) was less than 0.00949 µM and the IC50 (curve of first compound, second compound 10 µM) was less than 0.00949 µM. The viability, T/C (second compound 0.0316 µM, first compound 0.00949 µM) was 107%, the viability, T/C (second compound 0.0316 µM, first compound 0.03 µM) was 80.3% and the viability, T/C (second compound 0.0316 µM, first compound 0.0949 µM) was 52.4%. For the same compound, the viability, T/C (second compound 0.0316 µM, first compound 0.3 µM) was 34.5%, the viability, T/C (second compound 0.0316 µM, first compound 0.949 µM) was 16.1% and the viability, T/C (second compound 0.0316 µM, first compound 3 µM) was 6.83%. For the same compound, the viability, T/C (second compound 0.1 µM, first compound 0.00949 µM) was 100%, the viability, T/C (second compound 0.1 µM, first compound 0.03 µM) was 67.8% and the viability, T/C (second compound 0.1 µM, first compound 0.0949 µM) was 42.1%. For the same compound, the viability, T/C (second compound 0.1 µM, first compound 0.3 µM) was 25.4%, the viability, T/C (second compound 0.1 µM, first compound 0.949 µM) was 13% and the viability, T/C (second compound 0.1 µM, first compound 3 µM) was 9.02%. The viability, T/C (second compound 0.316 µM, first compound 0.00949 µM) was 76.8%, the viability, T/C (second compound 0.316 µM, first compound 0.03 µM) was 53.5% and the viability, T/C (second compound 0.316 µM, first compound 0.0949 µM) was 28.9%. The viability, T/C (second compound 0.316 µM, first compound 0.3 µM) was 18.5%, the viability, T/C (second compound 0.316 µM, first compound 0.949 µM) was 8.47% and the viability, T/C (second compound 0.316 µM, first compound 3 µM) was 3.53%. For the same compound, the viability, T/C (second compound 1 µM, first compound 0.00949 µM) was 48.1%, the viability, T/C (second compound 1 µM, first compound 0.03 µM) was 28.6% and the viability, T/C (second compound 1 µM, first compound 0.0949 µM) was 16.6%. The viability, T/C (second compound 1 µM, first compound 0.3 µM) was 5.87%, the viability, T/C (second compound 1 µM, first compound 0.949 µM) was 4.04% and the viability, T/C (second compound 1 µM, first compound 3 µM) was 1.48%. For the same compound, the viability, T/C (second compound 3.16 µM, first compound 0.00949 µM) was 23%, the viability, T/C (second compound 3.16 µM, first compound 0.03 µM) was 10.6% and the viability, T/C (second compound 3.16 µM, first compound 0.0949 µM) was 5.72%. The viability, T/C (second compound 3.16 µM, first compound 0.3 µM) was 3.73%, the viability, T/C (second compound 3.16 µM, first compound 0.949 µM) was 2.72% and the viability, T/C (second compound 3.16 µM, first compound 3 µM) was 0.62%. The viability, T/C (second compound 10 µM, first compound 0.00949 µM) was 3.43%, the viability, T/C (second compound 10 µM, first compound 0.03 µM) was 3.24% and the viability, T/C (second compound 10 µM, first compound 0.0949 µM) was 1.7%. For the same compound, the viability, T/C (second compound 10 µM, first compound 0.3 µM) was 2.06%, the viability, T/C (second compound 10 µM, first compound 0.949 µM) was 1.21% and the viability, T/C (second compound 10 µM, first compound 3 µM) was 0.89%.
Compound `CC1(C)CCC(CN2CCN(c3ccc(C(=O)NS(=O)(=O)c4ccc(NCC5CCOCC5)c([N+](=O)[O-])c4)c(Oc4cnc5[nH]ccc5c4)c3)CC2)=C(c2ccc(Cl)cc2)C1` + CC(Nc1ccc2c(c1)OCCn1cc(N3C(=O)OCC3C(F)F)nc1-2)C(N)=O has an IC50 [5] of 4.58 µM, an IC50 [6] of 4.54 µM and an IC50 [1] of 4.36 µM. It also gave an IC50 [2] of 3.65 µM, an IC50 [3] of 3.38 µM and an IC50 [4] of less than 0.0316 µM. The viability, T/C [7] was 97.8%, the viability, T/C [8] was 99.7% and the viability, T/C [9] was 95.3%. The viability, T/C [10] was 91.9%, the viability, T/C [11] was 71.2% and the viability, T/C [12] was 5.92%. For the same compound, the viability, T/C [13] was 107%, the viability, T/C [14] was 94.3% and the viability, T/C [15] was 95.1%. For the same compound, the viability, T/C [16] was 95.3%, the viability, T/C [17] was 71.1% and the viability, T/C [18] was 3.55%. The viability, T/C [19] was 106%, the viability, T/C [20] was 108% and the viability, T/C [21] was 99.4%. The viability, T/C [22] was 89.4%, the viability, T/C [23] was 71% and the viability, T/C [24] was 2.8%. The viability, T/C [25] was 98.6%, the viability, T/C [26] was 99.9% and the viability, T/C [27] was 87.5%. For the same compound, the viability, T/C [28] was 78.3%, the viability, T/C [29] was 60.3% and the viability, T/C [30] was 2.37%. The viability, T/C [31] was 86.1%, the viability, T/C [32] was 83.3% and the viability, T/C [33] was 67.5%. The viability, T/C [34] was 71.1%, the viability, T/C [35] was 56.2% and the viability, T/C [36] was 0.63%. The viability, T/C [37] was 47.5%, the viability, T/C [38] was 44.8% and the viability, T/C [39] was 46.3%. The viability, T/C [40] was 46.1%, the viability, T/C [41] was 34.4% and the viability, T/C [42] was 0.99%.
With `CC(Cn1ccc(-c2ccc(C#N)c(Cl)c2)n1)NC(=O)c1cc(C(C)O)[nH]n1` (stereo unspecified) + CC(Nc1ccc2c(c1)OCCn1cc(N3C(=O)OCC3C(F)F)nc1-2)C(N)=O the IC50 [5] was greater than 10 µM, the IC50 [6] was greater than 10 µM and the IC50 [1] was greater than 10 µM. For the same compound, the IC50 [2] was greater than 10 µM, the IC50 [3] was greater than 10 µM and the IC50 [4] was less than 0.0316 µM. It also gave a viability, T/C [7] of 97.8%, a viability, T/C [8] of 97% and a viability, T/C [9] of 91.3%. The viability, T/C [10] was 84.9%, the viability, T/C [11] was 93.6% and the viability, T/C [12] was 102%. It also gave a viability, T/C [13] of 101%, a viability, T/C [14] of 93.2% and a viability, T/C [15] of 95.6%. It also gave a viability, T/C [16] of 91.6%, a viability, T/C [17] of 108% and a viability, T/C [18] of 91.7%. It also gave a viability, T/C [19] of 106%, a viability, T/C [20] of 95.3% and a viability, T/C [21] of 102%. It also gave a viability, T/C [22] of 111%, a viability, T/C [23] of 111% and a viability, T/C [24] of 95.5%. The viability, T/C [25] was 104%, the viability, T/C [26] was 107% and the viability, T/C [27] was 101%. The viability, T/C [28] was 90.1%, the viability, T/C [29] was 88.8% and the viability, T/C [30] was 74.4%. It also gave a viability, T/C [31] of 81.3%, a viability, T/C [32] of 82% and a viability, T/C [33] of 74.6%. For the same compound, the viability, T/C [34] was 73%, the viability, T/C [35] was 67.7% and the viability, T/C [36] was 57.7%. It also gave a viability, T/C [37] of 47.7%, a viability, T/C [38] of 45.9% and a viability, T/C [39] of 44.9%. The viability, T/C [40] was 45.6%, the viability, T/C [41] was 44% and the viability, T/C [42] was 35.4%.
For `CC(C)n1nc(-c2ccc3oc(N)nc3c2)c2c(N)ncnc21`, the viability, T/C (compound 0.000316 µM) was 98% [middle of 4 runs], the viability, T/C (compound 0.001 µM) was 96.1% [middle of 4 runs] and the viability, T/C (compound 0.00316 µM) was 99.7% [middle of 4 runs]. For the same compound, the viability, T/C (compound 0.0316 µM) was 78.8% [middle of 4 runs], the viability, T/C (compound 0.1 µM) was 29.6% and 31.3% (2×) and 27.9% and the IC50 (curve of compound) was 63.7 nM [middle of 4 runs].
For `CC1(C)CCC(Nc2ncc(C(F)(F)F)c(-c3c[nH]c4c(P(C)(C)=O)c(C#N)ccc34)n2)CN1` (stereo unspecified), the viability, T/C (compound 0.0316 µM) was 75.1% [middle of 4 runs], the viability, T/C (compound 0.1 µM) was 55.2% [middle of 4 runs] and the viability, T/C (compound 0.316 µM) was 50.5% [middle of 4 runs]. For the same compound, the viability, T/C (compound 1 µM) was 59.2% [middle of 4 runs], the viability, T/C (compound 3.16 µM) was 62.6% [middle of 4 runs] and the viability, T/C (compound 10 µM) was 0.77% [middle of 4 runs]. The IC50 (curve of compound) was 3.64 µM [middle of 4 runs].
